Measurements reported in ChEMBL document CHEMBL3400065, “N10,N11-di-alkylamine indolo[3,2-b]quinolines as hemozoin inhibitors: design, synthesis and antiplasmodial activity” (Bioorg Med Chem, 2015).

Tests used:
Plasmodium falciparum [1] = assay: Resistance index, ratio of IC50 for ring stage Plasmodium falciparum W2 to IC50 for ring stage Plasmodium falciparum 3D7; assay type: functional
Plasmodium falciparum [2] = assay: Resistance index, ratio of IC50 for ring stage Plasmodium falciparum Dd2 to IC50 for ring stage Plasmodium falciparum 3D7; assay type: functional
[3] = Cytotoxicity against human HepG2A16 cells by MTT assay; assay type: cell-based
[4] = Selectivity index, ratio of IC50 for human HepG2A16 cells to IC50 for ring stage Plasmodium falciparum W2; assay type: toxicity; settings: read-out: Ratio IC50
Plasmodium falciparum [5] = assay: Antimalarial activity against ring stage Plasmodium falciparum W2 infected with human red blood cells incubated for 48 hrs by flow cytometry; assay type: functional, organism-based; settings: W2, 48 h
Plasmodium falciparum [6] = assay: Antimalarial activity against ring stage Plasmodium falciparum Dd2 infected with human red blood cells incubated for 48 hrs by SYBR Green method; assay type: functional; settings: Dd2, 48 h
Plasmodium falciparum [7] = assay: Antimalarial activity against ring stage Plasmodium falciparum 3D7 infected with human red blood cells incubated for 48 hrs by SYBR Green method; assay type: functional, organism-based; settings: 3D7, 48 h
[8] = n-octanol-phosphate buffer partition coefficient, log D in CH3CN-MeOH-phosphate buffer at pH 5.2 by HPLC-UV analysis; assay type: physicochemical
[9] = n-octanol-phosphate buffer partition coefficient, log D in CH3CN-MeOH-phosphate buffer at pH 7.4 by HPLC-UV analysis; assay type: physicochemical
[10] = Inhibition of beta-hematin formation after 5 to 6 hrs by pyridine-ferrichrome detergent-mediated assay; assay type: physicochemical
Plasmodium falciparum [11] = assay: Ratio of chloroquine IC50 to compound IC50 for ring stage Plasmodium falciparum W2 infected with human red blood cells incubated for 48 hrs by flow cytometry; assay type: functional

Row | IC50 (Plasmodium falciparum [5]) [nM] | IC50 (Plasmodium falciparum [6]) [nM] | IC50 (Plasmodium falciparum [7]) [nM] | logD [8] | logD [9] | IC50 [10] [nM] | SMILES | Ratio IC50 (Plasmodium falciparum [1]) | Ratio IC50 (Plasmodium falciparum [2]) | IC50 [3] [nM] | selectivity ratio [4] | Ratio IC50 (Plasmodium falciparum [11])
1 |  |  |  |  |  |  | CCN(CC)CCOc1cc(Cl)cc2nc3c4cc(Cl)ccc4n(CCN(CC)CC)c3cc12 | 0.3 | 0.3 | 5300 | 212 | 
2 | 158 | 724 | 656 | 0.05 | 3.2 | 98200 | CCN(CC)CCNc1c2ccc(Cl)cc2nc2c3ccccc3n(CCN3CCCC3)c12 |  |  | 6400 | 40 | 
3 | 99 | 631 | 468 | 0.34 | 2.7 | 79000 | Clc1ccc2c(NCCN3CCCC3)c3c(nc2c1)c1ccccc1n3CCN1CCCC1 |  |  | 4600 | 46 | 
4 | 87 | 455 | 480 | -0.03 | 1.48 | 21900 | CCN(CC)CCCNc1c2ccc(Cl)cc2nc2c3ccccc3n(CCN3CCCC3)c12 |  |  | 4500 | 52 | 
5 | 117 | 658 | 535 | -0.01 | 2.8 | 42900 | Clc1ccc2c(NCCCN3CCCCC3)c3c(nc2c1)c1ccccc1n3CCN1CCCC1 |  |  | 4300 | 37 | 
6 | 90 | 678 | 469 | 0.69 |  | 32900 | Clc1ccc2c(NCCCN3CCOCC3)c3c(nc2c1)c1ccccc1n3CCN1CCCC1 |  |  | 8600 | 96 | 
7 | 20 | 314 | 245 | 0.1 | 0.6 | 7900 | CCN(CC)CCCC(C)Nc1c2ccc(Cl)cc2nc2c3ccccc3n(CCN3CCCC3)c12 (centres undefined) |  |  | 2500 | 125 | 10
8 | 73 | 215 | 245 | 1 |  | 24800 | CCN(CC)CCNc1c2ccc(Cl)cc2nc2c3cc(Cl)ccc3n(CCN3CCCC3)c12 |  |  | 7500 | 103 | 
9 | 124 | 452 | 375 | 1.05 | 3 | 23400 | Clc1ccc2c(NCCN3CCCC3)c3c(nc2c1)c1cc(Cl)ccc1n3CCN1CCCC1 |  |  | 8700 | 70 | 
10 | 77 | 481 | 392 | 0.54 | 3.23 | 20400 | CCN(CC)CCCNc1c2ccc(Cl)cc2nc2c3cc(Cl)ccc3n(CCN3CCCC3)c12 |  |  | 6000 | 78 | 
11 | 97 | 638 | 660 | 0.78 | 3.1 | 13500 | Clc1ccc2c(NCCCN3CCCCC3)c3c(nc2c1)c1cc(Cl)ccc1n3CCN1CCCC1 |  |  | 5700 | 59 | 
12 | 292 | 572 | 407 | 1.5 |  | 17400 | Clc1ccc2c(NCCCN3CCOCC3)c3c(nc2c1)c1cc(Cl)ccc1n3CCN1CCCC1 |  |  | 11900 | 41 | 
13 | 126 | 706 | 456 | 0.26 |  | 10800 | CCN(CC)CCCC(C)Nc1c2ccc(Cl)cc2nc2c3cc(Cl)ccc3n(CCN3CCCC3)c12 (centres undefined) |  |  | 6500 | 52 | 
14 | 113 | 453 | 320 | 0.72 |  | 26900 | CCN(CC)CCCNc1c2ccc(Cl)cc2nc2c3ccccc3n(CCN3CCOCC3)c12 |  |  | 4600 | 41 | 
15 | 95 | 311 | 199 | 1.5 |  | 21100 | CCN(CC)CCCNc1c2ccc(Cl)cc2nc2c3cc(Cl)ccc3n(CCN3CCOCC3)c12 |  |  | 4700 | 49 | 
16 | 165 | 683 | 513 | 1.79 |  | 14300 | CCN(CC)CCNc1c2ccc(Cl)cc2nc2c3cc(Cl)ccc3n(CCN3CCOCC3)c12 |  |  | 16600 | 103 | 
17 |  |  |  |  |  | 28200 | CCN(CC)CCCC(C)Nc1ccnc2cc(Cl)ccc12 (centres undefined) [CHLOROQUINE] |  |  |  |  | 
